Each structure is given as a SMILES string.

This passage reports EC50 results from US12391680B2, “Compounds and compositions for the treatment of cystic fibrosis” (FONDAZIONE ISTITUTO ITALIANO DI TECNOLOGIA, priority 2019, dated 2025).

The target of this assay is mutant CFTR (Homo sapiens, UniProt P13569). In words: Fluorescence assay for CFTR activity (halide-sensitive YFP, HS-YFP). Type of assay: cell-based. The conditions noted are these: CFBE41o- and FRT cells with stable expression of mutant CFTR. The protocol: Mutant CFTR activity was determined with the functional assay based on the halide-sensitive yellow fluorescent protein, HS—YFP (Galietta et al., FEBS Lett 499:220-224, 2001). CFBE41o- and FRT cells with stable expression of mutant CFTR and HS—YFP were plated on clear-bottom 96-well black microplates (Code 3603, Corning Life Sciences) at a density of 50,000 cells/well and kept at 37° C. in 5% CO2 for 24 hours.
For the corrector assay, cells were treated for further 24 hours with test compounds, vehicle (DMSO), or the positive control VX-809. After treatment, the culture medium was removed and cells in each well were stimulated for 30 min at 37° C. with 60 μL PBS (containing 137 mM NaCl, 2.7 mM KCl, 8.1 mM Na2HPO4, 1.5 mM KH2PO4, 1 mM CaCl2, and 0.5 mM MgCl2) plus forskolin (20 μM) and genistein (50 μM).
For determination of potentiator activity on F508del-CFTR, cells were incubated for 24 hours at 27° C. to allow trafficking of the mutant protein to plasma membrane. Cells were then stimulated with for 30 min with PBS containing forskolin (20 μM) plus the compound to be tested at the desired concentration. For determination of potentiator activity on G551D-CFTR or G1349D-CFTR, cells were directly stimulated with forskolin plus test compound without previous incubation at low temperature. At the time of assay, microplates carrying CFBE41o- or FRT cells were transferred to microplate readers (BMG Labtech) equipped with high-quality excitation (HQ500/20×: 500±10 nm) and emission (HQ535/30M: 535±15 nm) filters for YFP (Chroma Technology). The assay consisted of a continuous 14 s fluorescence reading with 2 s before and 12 s after injection of an iodide-containing solution (165 μL of a modified PBS containing I^− instead of Cl^−; final I^− concentration in the well: 100 mM). Data were normalized to the initial background-subtracted fluorescence. Enhanced CFTR activity, induced by correctors and/or potentiators, results in accelerated I^− influx that in turn causes faster HS—YFP quenching (Pedemonte et al., Mol Pharmacol 68:1736-1746, 2005; Pedemonte et al., J Clin Invest 115:2564-2571, […]). To determine fluorescence quenching rate associated with I^− influx, the final 10 s of data for each well were fitted with an exponential function to extrapolate initial slope (dF/dt).
EC50 obtained are illustrated in Table 1 wherein+: EC50>2 μM; ++: 1.0 μM <EC50<2 μM; +++: EC50<1 μM.

mutant CFTR, sequence (P13569 with tags, fused parts or gaps DEL508-508): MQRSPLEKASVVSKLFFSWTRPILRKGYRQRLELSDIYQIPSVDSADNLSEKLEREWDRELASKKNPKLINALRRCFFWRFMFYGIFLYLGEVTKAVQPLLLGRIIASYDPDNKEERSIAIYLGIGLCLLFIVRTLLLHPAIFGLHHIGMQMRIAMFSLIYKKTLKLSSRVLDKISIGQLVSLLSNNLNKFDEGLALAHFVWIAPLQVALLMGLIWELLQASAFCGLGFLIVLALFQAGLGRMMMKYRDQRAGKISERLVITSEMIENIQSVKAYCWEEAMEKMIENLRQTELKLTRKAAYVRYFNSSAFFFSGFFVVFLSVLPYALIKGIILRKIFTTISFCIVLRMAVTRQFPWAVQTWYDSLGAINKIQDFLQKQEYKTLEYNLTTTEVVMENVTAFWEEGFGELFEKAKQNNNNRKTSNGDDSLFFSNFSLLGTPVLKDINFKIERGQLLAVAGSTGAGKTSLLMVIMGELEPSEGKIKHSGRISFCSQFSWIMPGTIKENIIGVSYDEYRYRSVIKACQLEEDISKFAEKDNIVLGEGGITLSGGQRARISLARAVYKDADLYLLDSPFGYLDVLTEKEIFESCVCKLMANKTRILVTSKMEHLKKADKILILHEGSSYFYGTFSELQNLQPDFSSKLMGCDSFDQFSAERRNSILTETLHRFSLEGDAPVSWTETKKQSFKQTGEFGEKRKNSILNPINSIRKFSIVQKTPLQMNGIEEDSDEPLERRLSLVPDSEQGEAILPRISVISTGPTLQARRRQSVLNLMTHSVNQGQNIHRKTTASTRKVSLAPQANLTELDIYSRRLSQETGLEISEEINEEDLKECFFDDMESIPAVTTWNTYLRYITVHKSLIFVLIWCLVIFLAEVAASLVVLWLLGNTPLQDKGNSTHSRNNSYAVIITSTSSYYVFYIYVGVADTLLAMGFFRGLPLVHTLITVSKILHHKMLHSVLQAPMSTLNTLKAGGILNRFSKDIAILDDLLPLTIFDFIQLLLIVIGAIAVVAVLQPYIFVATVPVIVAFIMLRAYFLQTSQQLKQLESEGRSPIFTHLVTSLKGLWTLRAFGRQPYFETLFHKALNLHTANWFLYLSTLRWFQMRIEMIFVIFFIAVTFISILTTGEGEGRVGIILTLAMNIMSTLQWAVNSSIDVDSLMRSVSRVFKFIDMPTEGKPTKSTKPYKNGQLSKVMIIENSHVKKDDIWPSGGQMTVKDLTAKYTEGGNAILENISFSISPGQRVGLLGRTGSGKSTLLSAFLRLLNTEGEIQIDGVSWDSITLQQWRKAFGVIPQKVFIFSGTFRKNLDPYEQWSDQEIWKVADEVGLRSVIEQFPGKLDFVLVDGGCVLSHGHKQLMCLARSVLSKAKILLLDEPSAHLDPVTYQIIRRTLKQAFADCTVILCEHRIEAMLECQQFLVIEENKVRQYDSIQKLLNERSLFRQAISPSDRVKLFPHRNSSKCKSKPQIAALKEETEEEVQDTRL

`Cc1nc(S(=O)(=O)N2CCOC(c3c(C(N)=O)sc4ccccc34)C2)cn1C` (racemic) [compound 002, rac-3-[4-(1,2-dimethylimidazol-4-yl)sulfonylmorpholin-2-yl]benzothiophene-2-carboxamide]: the EC50 was above 2 µM. For `Cc1ccc(F)cc1S(=O)(=O)N1CCOC(c2c(C(N)=O)sc3ccccc23)C1` (racemic) [compound 027, rac-3-[4-(5-fluoro-2-methyl-phenyl)sulfonylmorpholin-2-yl]benzothiophene-2-carboxamide] the value was above 2 µM; for `NC(=O)c1sc2ccccc2c1C1CN(S(=O)(=O)c2ccc(Cl)cc2)CCO1` (racemic) [compound 040, rac-3-[4-(4-chlorophenyl)sulfonylmorpholin-2-yl]benzothiophene-2-carboxamide], 1 to 2 µM; for `NC(=O)c1sc2ccccc2c1C1CN(S(=O)(=O)c2ccc(F)c(C(F)(F)F)c2)CCO1` (racemic) [compound 038, rac-3-[4-[4-fluoro-3-(trifluoromethyl)phenyl]sulfonylmorpholin-2-yl]benzothiophene-2-carboxamide], above 2 µM. Next, `Cc1noc(C)c1S(=O)(=O)N1CCOC(c2c(C(N)=O)sc3ccccc23)C1` (racemic) [compound 008, rac-3-[4-(3,5-dimethylisoxazol-4-yl)sulfonylmorpholin-2-yl]benzothiophene-2-carboxamide]: above 2 µM. `Cc1cc(C)c(S(=O)(=O)N2CCOC(c3c(C(N)=O)sc4ccccc34)C2)c(C)c1` (racemic) [compound 032, rac-3-[4-(2,4,6-trimethylphenyl)sulfonylmorpholin-2-yl]benzothiophene-2-carboxamide]: the EC50 was above 2 µM. For `NC(=O)c1sc2ccccc2c1C1CN(S(=O)(=O)c2ccccc2C(F)(F)F)CCO1` (racemic) [compound 066, rac-3-[4-[2-(trifluoromethyl)phenyl]sulfonylmorpholin-2-yl]benzothiophene-2-carboxamide] the value was above 2 µM; for `COC(=O)c1cccc(S(=O)(=O)N2CCOC(c3c(C(N)=O)sc4ccccc34)C2)c1` (racemic) [compound 007, rac-methyl 3-[2-(2-carbamoylbenzothiophen-3-yl)morpholin-4-yl]sulfonylbenzoate], above 2 µM; for `NC(=O)c1sc2ccccc2c1C1CN(S(=O)(=O)c2c[nH]cn2)CCO1` (racemic) [compound 004, rac-3-[4-(1H-imidazol-4-ylsulfonyl)morpholin-2-yl]benzothiophene-2-carboxamide], above 2 µM. Next, `NC(=O)c1sc2ccccc2c1C1CN(S(=O)(=O)c2ccc(F)cc2)CCO1` (racemic) [compound 022, rac-3-[4-(4-fluorophenyl)sulfonylmorpholin-2-yl]benzothiophene-2-carboxamide]: above 2 µM; `CC(C)(C)c1ccc(S(=O)(=O)N2CCOC(c3c(C(N)=O)sc4ccccc34)C2)cc1` (racemic) [compound 036, rac-3-[4-(4-tert-butylphenyl)sulfonylmorpholin-2-yl]benzothiophene-2-carboxamide]: below 1 µM; `NC(=O)c1sc2ccccc2c1C1CN(S(=O)(=O)c2ccc(-c3ccccc3)cc2)CCO1` (racemic) [compound 051, rac-3-[4-(4-phenylphenyl)sulfonylmorpholin-2-yl]benzothiophene-2-carboxamide]: below 1 µM. As to `Cc1cc(S(=O)(=O)N2CCOC(c3c(C(=O)NCCO)sc4ccccc34)C2)ccc1F` (racemic) [compound 029, rac-3-[4-(4-fluoro-3-methyl-phenyl)sulfonylmorpholin-2-yl]-N-(2-hydroxyethyl)benzothiophene-2-carboxamide], the concentration giving a half-maximal response (EC50) was above 2 µM.

Take `COc1ccc(S(=O)(=O)N2CCOC(c3c(C(N)=O)sc4ccccc34)C2)cc1C` (racemic) [compound 023, rac-3-[4-(4-methoxy-3-methyl-phenyl)sulfonylmorpholin-2-yl]benzothiophene-2-carboxamide]: the half-maximal effective concentration (EC50) was above 2 µM. On to `COc1ccccc1S(=O)(=O)N1CCOC(c2c(C(N)=O)sc3ccccc23)C1` (racemic) [compound 050, rac-3-[4-(2-methoxyphenyl)sulfonylmorpholin-2-yl]benzothiophene-2-carboxamide], for which the 50% effective concentration (EC50) was above 2 µM. Next, `NC(=O)c1sc2ccccc2c1C1CN(S(=O)(=O)c2ccsc2)CCO1` (racemic) [compound 005, rac-3-[4-(3-thienylsulfonyl)morpholin-2-yl]benzothiophene-2-carboxamide]: above 2 µM; `COc1cc(S(=O)(=O)N2CCOC(c3c(C(N)=O)sc4ccccc34)C2)ccc1C(F)(F)F` (racemic) [compound 045, rac-3-[4-[3-methoxy-4-(trifluoromethyl)phenyl]sulfonylmorpholin-2-yl]benzothiophene-2-carboxamide]: 1 to 2 µM. For `CNC(=O)c1sc2ccccc2c1C1CN(S(=O)(=O)c2c(C)noc2C)CCO1` (centres unmarked) [compound 075, 3-[4-(3,5-dimethyl-isoxazole-4-sulfonyl)-morpholin-2-yl]-benzo[b]thiophene-2-carboxylic acid methylamide] the value was above 2 µM; for `CCNC(=O)c1sc2ccccc2c1C1CN(S(=O)(=O)c2ccc(F)c(C)c2)CCO1` (racemic) [compound 030, rac-N-ethyl-3-[4-(4-fluoro-3-methyl-phenyl)sulfonylmorpholin-2-yl]benzothiophene-2-carboxamide], above 2 µM. Take `NC(=O)c1sc2ccccc2c1C1CN(S(=O)(=O)c2cccc(OC(F)(F)F)c2)CCO1` (racemic) [compound 049, rac-3-[4-[3-(trifluoromethoxy)phenyl]sulfonylmorpholin-2-yl]benzothiophene-2-carboxamide]: the concentration giving a half-maximal response (EC50) is above 2 µM. For `CN1CCOc2cc(S(=O)(=O)N3CCOC(c4c(C(N)=O)sc5ccccc45)C3)ccc21` (racemic) [compound 057, rac-3-[4-[(4-methyl-2,3-dihydro-1,4-benzoxazin-7-yl)sulfonyl]morpholin-2-yl]benzothiophene-2-carboxamide] the value was below 1 µM; for `Cc1cc(S(=O)(=O)N2CCOC(c3c(C(=O)N(C)C)sc4ccccc34)C2)ccc1F` (racemic) [compound 025, rac-3-[4-(4-fluoro-3-methyl-phenyl)sulfonylmorpholin-2-yl]-N,N-dimethyl-benzothiophene-2-carboxamide], above 2 µM. In the case of `O=C(NCCO)c1sc2ccccc2c1C1CN(S(=O)(=O)c2ccccc2)CCO1` (centres unmarked) [compound 080, N-(2-hydroxyethyl)-3-[4-(phenylsulfonyl)-2-morpholinyl]-1-benzothiophene-2-carboxamide], the EC50 is above 2 µM. For `CNC(=O)c1sc2ccccc2c1C1CN(S(=O)(=O)C2CCCC2)CCO1` (centres unmarked) [compound 081, 3-(4-cyclopentanesulfonyl-morpholin-2-yl)-benzo[b]thiophene-2-carboxylic acid methylamide] the value was above 2 µM. `COc1ccc(S(=O)(=O)N2CCOC(c3c(C(N)=O)sc4ccccc34)C2)cc1[N+](=O)[O-]` (racemic) [compound 047, rac-3-[4-(4-methoxy-3-nitro-phenyl)sulfonylmorpholin-2-yl]benzothiophene-2-carboxamide]: the concentration for a half-maximal effect (EC50) is above 2 µM.

Regarding `N#Cc1ccc(S(=O)(=O)N2CCOC(c3c(C(N)=O)sc4ccccc34)C2)cc1` (racemic) [compound 037, rac-3-[4-(4-cyanophenyl)sulfonylmorpholin-2-yl]benzothiophene-2-carboxamide], the concentration for a half-maximal effect (EC50) was above 2 µM.

In the case of `NC(=O)c1sc2ccccc2c1C1CN(S(=O)(=O)c2ccc([N+](=O)[O-])cc2)CCO1` (racemic) [compound 065, rac-3-[4-(4-nitrophenyl)sulfonylmorpholin-2-yl]benzothiophene-2-carboxamide], the EC50 was above 2 µM. For `COc1ccc(S(=O)(=O)N2CCOC(c3c(C(N)=O)sc4ccccc34)C2)cc1C(F)(F)F` (racemic) [compound 046, rac-3-[4-[4-methoxy-3-(trifluoromethyl)phenyl]sulfonylmorpholin-2-yl]benzothiophene-2-carboxamide] the value was below 1 µM; for `COc1ccc(S(=O)(=O)N2CCOC(c3c(C(N)=O)sc4ccccc34)C2)cc1OC` (racemic) [compound 054, rac-3-[4-(3,4-dimethoxyphenyl)sulfonylmorpholin-2-yl]benzothiophene-2-carboxamide], above 2 µM.

A word on the EC50: it is the concentration that produces a half-maximal response.
